{"source": "patent US11634594B2", "about": "“Antimicrobial agent for coatings and finishes” (SWIMC LLC, priority 2016, dated 2023)", "test_system": "challenge pool of 7 bacteria: P. aeruginosa, E. aerogenes, E. coli, K. pneumonia, S. aureus, B. subtilis and S. enterica", "experiment": "ASTM D 2574 (modified) on pigment dispersions, split samples aged at room temperature / 3 weeks 60° C. / 6 weeks 60° C.", "type": "cell-based", "experimental": "ASTM D 2574: Standard Test for Resistance of Emulsion Paints in the Container to Attack by Microorganisms.\nThe test is conducted in accordance with the ASTM standard, except for the following modifications noted for the preparation of the inoculum and test procedure.\nPreparation of Inoculum: There are 7 bacteria used in forming the challenge pool, they include: P. aeruginosa (ATCC #10145), E. aerogenes (ATCC #13048), E. coli (ATCC #10536), K. pneumonia (ATCC #10031), S. aureus (ATCC #6538), B. subtilis (ATCC #6051) and S. enterica (ATCC #13312). Bacterial cultures are prepared 24 hours before the test is scheduled to start by selecting one colony from a plate with a […], inoculating loop, adding it to 10 mL of sterile tryptic soy broth tubes and placing it on the shaking incubator. A 1 mL of each of the seven organisms is combined into a pool in a conical tube. A 1 mL of the created pool is then added to a 9 mL of sterile tryptic soy broth in a conical tube to get an inoculum concentration of ˜10^8 CFU/mL.\nTest Procedure: A 1:100 dilution of the inoculum is added into each sample (ex. […], into 40 mL of sample) which provides a ˜10^6 CFU/mL challenge. The samples are then placed into 35° C. incubator for 24 hours to grow new organisms before each inoculation. The samples are inoculated on Days: 0, 2, 7 and 14. The samples are put back into incubator after each inoculation. […]"}
{"substance": "bismuth aluminate", "values": [{"measurement": "effectiveness compared with isothiazolone antimicrobial agent", "setting": "Table 4", "result": "at least as effective as the isothiazolone antimicrobial agent"}, {"measurement": "preventing microbial growth", "setting": "initial results", "result": "effective in preventing microbial growth"}]}
